Data reported in patent US20240350443A1, “COMPOSITION, FORMULATION, PREPARATION METHOD AND USE FOR GLUTATHIONE PRECURSOR” (priority 2021, published 2024).
Marks after values point to notes of the source that are not given here.

Experiments:
Assay type in all cases: in vivo, Kunming mice
aged mice = experiment: Oxidation resistance function experiment in aged mice; conditions: x ± s, n = 13
Excerpt: In the experiment, the oxidation resistance effect of the composition was researched by detecting four indicators of MDA, protein carbonyl, antioxidant enzyme activity (GSH-PX or SOD) and reduced GSH content. If three of the four indicators were positive, the composition could be determined to have the oxidation resistance effect.
Test animals were as follows: male SPF-grade Kunming mice aged over 10 months, with body weights of 40-60 g, available from Hubei Provincial Laboratory Animal Public Service Center, Hubei, China [certification No.: SCXK (E) 2020-0018].
The experimental method was as follows: 104 mice were randomly divided into 8 groups, namely, a negative control group and experimental groups 1-7 (i.e., the formula of the test samples adopted the formula of the above experimental groups 1-7), with 13 mice in each group.
Distilled water was given to the blank control group, corresponding test substances (the dose of acetylcysteine or cysteine agent in each test substance was 500 mg/kg BW) were given to each experimental group, and the intragastric capacity was 20 mL/kg BW. After 30 days of continuous intragastric administration, blood was sampled from the inner canthus of each group of animals, a hemolysate was prepared, and the MDA content and the glutathione peroxidase (GSH-PX) activity were detected; the animals were sacrificed and the livers were taken as homogenates, 10% liver homogenates were prepared for reduced GSH and protein carbonyl determination, and 1% liver homogenates were prepared for superoxide dismutase (SOD) activity determination. Each detection kit was available from NanJing JianCheng Bioengineering Institute.

alcoholic liver damage [1] = experiment: Liver protection function experiment: MDA, reduced GSH and TG in liver homogenates
Excerpt: In the experiment, the auxiliary protection effect of the composition of the present disclosure on alcoholic liver damage was researched by detecting three indicators of liver malondialdehyde (MDA) content, reduced glutathione (GSH) and triglyceride (TG) and histopathologic examination (wherein the lower the MDA and TG contents were, the higher the GSH content was, the better the liver protection effect was). If the three indicators of the liver MDA, the reduced GSH and the TG were positive, or any two of the three indicators of the liver MDA, the reduced GSH and the TG were positive and the histopathological examination result was positive, the composition could be determined to have the auxiliary protection effect on alcoholic liver damage.
Test animals were as follows: male SPF-grade Kunming mice aged 5 to 6 weeks, with body weights of 18-22 g, available from Hubei Provincial Laboratory Animal Public Service Center, Hubei, China [certification No.: SCXK (E) 2020-0018].
The experimental method was as follows: 117 mice were randomly divided into 9 groups, namely a blank control group, a model control group and experimental groups 1-7 (the formula of the test samples was referred to the formula of the experimental groups 1-7), with 13 mice in each group.
Distilled water was given to the blank control group and the model control group, corresponding test substances (the dose of acetylcysteine or cysteine agent in each test substance was 500 mg/kg BW) were given to each experimental group according to the formula, and the intragastric capacity was 20 mL/kg BW. On day 30 of the experiment, the mice of the model control group and each experimental group were intragastrically administered with 14 mL/kg BW of 50% ethanol once, and distilled water with equal volume was given to the blank control group, and then the mice were fasted for 16 hours. The mice were sacrificed by cervical dislocation after weighing.
0.5 g of liver was taken and added with normal saline to prepare a liver homogenate, and then the MDA, reduced GSH and TG were detected. The detection method and the calculation method for the MDA and reduced GSH were described according to the instruction of a kit from NanJing JianCheng Bioengineering Institute, and the TG was detected by using the Beckman Coulter AU680 Chemistry Analyzer.

immune system of mice = experiment: Immunity enhancement function, overall determination; conditions: any two of four aspects positive
alcoholic liver damage [2] = experiment: Liver protection function experiment: liver histopathology score (lipid droplets); conditions: alcoholic liver damage mice; score 0-4 points per field; x ± s, 13 mice
Method: Distilled water was given to the blank control group and the model control group, corresponding test substances (the dose of acetylcysteine or cysteine agent in each test substance was 500 mg/kg BW) were given to each experimental group according to the formula, and the intragastric capacity was 20 mL/kg BW. On day 30 of the experiment, the mice of the model control group and each experimental group were intragastrically administered with 14 mL/kg BW of 50% ethanol once, and distilled water with equal volume was given to the blank control group, and then the mice were fasted for 16 hours. The mice were sacrificed by cervical dislocation after weighing. […]
The areas of the fields of view occupied by various lesions in each field of view were respectively recorded, and the total lesion scores of the observed fields of view were accumulated. […]

[3] = tested on: mouse peritoneal macrophages; experiment: Phagocytosis of chicken erythrocytes by mouse peritoneal macrophages; conditions: x ± s, n = 10
Excerpt: (§1) In the experiment, the effect of the composition on the immune system of mice was researched from four aspects of cellular immune function, humoral immune function, monocyte-macrophage function and NK cell activity.
(§2) Test animals were as follows: male SPF-grade Kunming mice aged 4 weeks, with body weights of 18-22 g, available from Hubei Provincial Laboratory Animal Public Service Center, Hubei, China [certification No.: SCXK (E) 2020-0018].
(§3) The experimental method was as follows: 400 mice were randomly divided into 5 groups, with 80 mice in each group, and each group was subjected to 5 kinds of immunoassays including body weight and organ/body ratio measurement, cellular immune function measurement, humoral immune function measurement, monocyte-macrophage function measurement, and NK cell activity measurement. For each immunoassay, 80 mice were tested and divided into 8 groups, namely a negative control group and experimental groups 1-7, with 10 mice in each group; distilled water was given to the negative control group, corresponding test substances (the dose of acetylcysteine or cysteine agent in each test substance was 500 mg/kg BW) were given to each experimental group, and the intragastric capacity was 20 mL/kg BW.

humoral immune function = experiment: Humoral immune function: antibody-producing cells and serum hemolysin level; conditions: mice; 500 mg/kg BW intragastric; x ± s, n = 10
Excerpt: as §1, §2, §3

[4] = 10% liver homogenates of aged mice, 30 days
[5] = alcoholic liver damage mice, 500 mg/kg BW acetylcysteine or cysteine intragastric, 30 days, x ± s, 13 mice

CC(=O)N[C@@H](CS)C(=O)O [Experimental group 1, N-acetylcysteine]
SOD (aged mice; 1% liver homogenates of aged mice, 30 days): 338.4 ± 44.9^bc U/mgprot
MDA (aged mice; 2% hemolysates of aged mice, 500 mg/kg BW intragastric 30 days): 17.88 ± 2.55^bc nmol/ml
GSH (aged mice; [4]): 30.05 ± 6.08^a mg/gprot
Protein carbonyl (aged mice; [4]): 1.33 ± 0.35^ab nmol/mgprot
GSH-PX (aged mice; hemolysate of aged mice, 30 days): 585.2 ± 24.2^a U/ml
Auxiliary protection effect on alcoholic liver damage (determination) (alcoholic liver damage [1]; Technical Specification for Inspection and Evaluation of Health Food (2003 edition)): had an auxiliary protection effect on alcoholic liver damage
MDA in liver homogenates (alcoholic liver damage [1]; [5]): 0.98 ± 0.28^bc nmol/mgprot
Reduced GSH in liver homogenates (alcoholic liver damage [1]; [5]): 34.55 ± 9.48^bc mg/gprot
TG in liver homogenates (alcoholic liver damage [1]; [5]): 1.52 ± 0.64^bc mmol/L
Immunity enhancement effect (determination) (immune system of mice): had the immunity enhancement effect
Liver histopathology score (fatty degeneration of hepatocytes) (alcoholic liver damage [2]): 1.46 ± 1.05^bc
Phagocytic rate, phagocytosis of chicken erythrocytes [3]: 33.88 ± 2.48^b %
Number of hemolytic plaques (N)/number of whole splenocytes (humoral immune function): 161.71 ± 11.52^c
